Activity calls are given as the source filed them.
Assays:
[1] = system: Mycobacterium tuberculosis; test: Antitubercular activity against Mycobacterium tuberculosis H37Rv assessed as inhibition of bacterial growth incubated for 5 days by Alamar Blue based assay; type: functional, organism-based; settings: 120 h
RAW264.7 = test: Cytotoxicity against mouse RAW264.7 cells assessed as cell viability at 25 microg/ml incubated for 24 hrs by MTT assay; type: toxicity, cell-based; settings: raw264.7, 24 h, dose 25 µg/ml
[2] = Toxicity in BALB/c mouse assessed as animal survival at 2.5 mg/kg, ip measured for 14 days; type: organism-based; settings: in vivo, 336 h, time 14 day
[3] = target: T1, Long-chain-fatty-acid--AMP ligase FadD32 (Mycobacterium tuberculosis (strain ATCC 25618 / H37Rv)) (UniProt O53580); test: Inhibition of Mycobacterium tuberculosis H37Rv recombinant fadD32 at 200 uM relative to control
T1 sequence (whole entry): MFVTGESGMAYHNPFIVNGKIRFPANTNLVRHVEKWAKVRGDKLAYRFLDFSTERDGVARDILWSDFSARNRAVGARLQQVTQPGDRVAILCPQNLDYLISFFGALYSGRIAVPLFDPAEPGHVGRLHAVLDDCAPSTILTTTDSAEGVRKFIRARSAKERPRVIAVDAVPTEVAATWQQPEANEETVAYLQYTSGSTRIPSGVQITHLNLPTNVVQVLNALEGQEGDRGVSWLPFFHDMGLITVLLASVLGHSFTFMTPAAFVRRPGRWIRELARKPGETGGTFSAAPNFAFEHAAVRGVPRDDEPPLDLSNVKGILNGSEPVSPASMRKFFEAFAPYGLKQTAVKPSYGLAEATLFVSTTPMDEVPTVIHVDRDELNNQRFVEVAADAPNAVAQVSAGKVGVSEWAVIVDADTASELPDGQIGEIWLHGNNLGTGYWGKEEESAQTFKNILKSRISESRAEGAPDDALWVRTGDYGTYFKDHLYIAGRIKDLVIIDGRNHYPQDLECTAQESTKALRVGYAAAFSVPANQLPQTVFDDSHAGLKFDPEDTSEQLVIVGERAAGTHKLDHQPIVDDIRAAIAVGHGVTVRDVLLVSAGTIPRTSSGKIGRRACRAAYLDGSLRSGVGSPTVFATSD

[4] = target: T2, Long-chain-fatty-acid--AMP ligase FadD32 (Mycobacterium tuberculosis (strain ATCC 25618 / H37Rv), UniProt O53580); test: Uncompetitive inhibition of Mycobacterium tuberculosis H37Rv recombinant FadD32 assessed as inhibition constant in presence of lauric acid by Lineweaver-burk plot analysis
T2 sequence (O53580 whole entry): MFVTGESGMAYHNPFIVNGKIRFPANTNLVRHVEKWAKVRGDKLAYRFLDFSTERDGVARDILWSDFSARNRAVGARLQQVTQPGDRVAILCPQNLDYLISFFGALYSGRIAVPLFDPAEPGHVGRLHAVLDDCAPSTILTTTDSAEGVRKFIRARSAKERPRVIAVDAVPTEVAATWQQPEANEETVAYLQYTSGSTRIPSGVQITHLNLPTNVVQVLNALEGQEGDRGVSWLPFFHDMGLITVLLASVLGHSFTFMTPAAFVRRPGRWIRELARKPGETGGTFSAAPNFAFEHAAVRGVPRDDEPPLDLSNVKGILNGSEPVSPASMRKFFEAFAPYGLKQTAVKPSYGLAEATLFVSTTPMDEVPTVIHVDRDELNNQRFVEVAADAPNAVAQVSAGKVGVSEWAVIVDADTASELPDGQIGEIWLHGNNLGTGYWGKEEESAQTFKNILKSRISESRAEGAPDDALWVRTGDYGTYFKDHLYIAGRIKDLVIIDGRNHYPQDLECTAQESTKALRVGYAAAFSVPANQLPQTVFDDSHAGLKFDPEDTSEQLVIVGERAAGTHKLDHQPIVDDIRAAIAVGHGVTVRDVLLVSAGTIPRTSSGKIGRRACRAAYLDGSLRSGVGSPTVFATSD

[5] = system: Mycobacterium tuberculosis; test: Downregulation of fadD28 mRNA expression in Mycobacterium tuberculosis assessed as fold change by qRT-PCR analysis; type: functional
[6] = Toxicity in BALB/c mouse assessed as change in BUN level in serum at 2.5 mg/kg, ip measured for 14 days; type: organism-based; settings: in vivo, 336 h, time 14 day
[7] = system: Mycobacterium tuberculosis; test: Downregulation of ctpC mRNA expression in Mycobacterium tuberculosis assessed as fold change by qRT-PCR analysis; type: functional
[8] = system: Mycobacterium tuberculosis; test: Downregulation of CarD mRNA expression in Mycobacterium tuberculosis assessed as fold change by qRT-PCR analysis; type: functional
Escherichia coli = test: Antibacterial activity against Escherichia coli assessed as inhibition of bacterial growth upto 200 microg/ml incubated for 5 days by Alamar Blue based assay; type: functional, organism-based; settings: dose <= 200.0 µg/ml, time 5.0 day
[9] = system: Mycobacterium tuberculosis; test: Antitubercular activity against Mycobacterium tuberculosis infected in human THP-1 cells assessed as reduction in colony forming units at 5 to 9 microg/ml incubated for 48 hrs in presence of isoniazid; type: functional, organism-based; settings: dose 5-9 µg/ml
[10] = target: T3, Long-chain-fatty-acid--AMP ligase FadD28 (Mycobacterium tuberculosis) (UniProt P9WQ59); test: Inhibition of Mycobacterium tuberculosis H37Rv recombinant fadD28 at 200 uM relative to control
T3 sequence (whole entry): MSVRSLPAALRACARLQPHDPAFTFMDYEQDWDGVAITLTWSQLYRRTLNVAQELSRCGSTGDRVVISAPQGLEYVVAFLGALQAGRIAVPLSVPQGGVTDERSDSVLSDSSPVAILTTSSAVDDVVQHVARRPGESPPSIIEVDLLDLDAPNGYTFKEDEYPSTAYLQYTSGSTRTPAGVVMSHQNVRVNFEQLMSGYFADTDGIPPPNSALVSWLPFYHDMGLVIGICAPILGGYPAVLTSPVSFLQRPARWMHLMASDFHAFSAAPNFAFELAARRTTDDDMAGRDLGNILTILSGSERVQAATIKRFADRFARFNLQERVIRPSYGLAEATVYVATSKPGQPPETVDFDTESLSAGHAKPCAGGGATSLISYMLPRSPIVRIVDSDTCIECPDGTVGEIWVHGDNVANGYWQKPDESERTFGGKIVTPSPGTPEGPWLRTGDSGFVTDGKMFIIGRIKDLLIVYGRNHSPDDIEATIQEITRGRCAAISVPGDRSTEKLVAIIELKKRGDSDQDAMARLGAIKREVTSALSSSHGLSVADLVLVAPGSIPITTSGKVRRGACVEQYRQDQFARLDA

[11] = system: Mycobacterium tuberculosis; test: Downregulation of efpA mRNA expression in Mycobacterium tuberculosis assessed as fold change by qRT-PCR analysis; type: functional
[12] = system: Mycobacterium tuberculosis; test: Downregulation of fadD32 mRNA expression in Mycobacterium tuberculosis assessed as fold change by qRT-PCR analysis; type: functional
[13] = target: T1, Long-chain-fatty-acid--AMP ligase FadD32 (Mycobacterium tuberculosis (strain ATCC 25618 / H37Rv)); test: Inhibition of Mycobacterium tuberculosis H37Rv recombinant FadD32 upto 200 uM in presence of lauric acid by Michaelis-Menten plot analysis
[14] = system: Mycobacterium tuberculosis; test: Antitubercular activity against Mycobacterium tuberculosis H37Rv infected in BALB/c mouse chronic model assessed as reduction in reduction in mycobacterial burden in lung at 2.5 mg/kg, ip measured after 21 to 25 days by H and E staining based analysis; type: functional, organism-based; settings: time 21-25 day
[15] = Toxicity in BALB/c mouse assessed as change in ALP level in serum at 2.5 mg/kg, ip measured for 14 days; type: organism-based; settings: in vivo, 336 h, time 14 day
[16] = system: Mycobacterium tuberculosis; test: Antitubercular activity against Mycobacterium tuberculosis infected in mouse RAW264.7 cells assessed as reduction in colony forming units at 5 to 9 microg/ml incubated for 48 hrs in presence of ethambutol; type: functional, organism-based; settings: dose 5-9 µg/ml
[17] = system: Mycobacterium tuberculosis; test: Antitubercular activity against Mycobacterium tuberculosis infected in mouse RAW264.7 cells assessed as reduction in colony forming units at 5 to 9 microg/ml incubated for 48 hrs; type: functional, organism-based; settings: dose 5-9 µg/ml
[18] = system: Mycobacterium tuberculosis; test: Downregulation of papA mRNA expression in Mycobacterium tuberculosis assessed as fold change by qRT-PCR analysis; type: functional
[19] = system: Mycobacterium tuberculosis; test: Downregulation of PKS13 mRNA expression in Mycobacterium tuberculosis assessed as fold change by qRT-PCR analysis; type: functional
[20] = system: Mycobacterium tuberculosis; test: Downregulation of groES mRNA expression in Mycobacterium tuberculosis assessed as fold change by qRT-PCR analysis; type: functional
[21] = system: Mycobacterium tuberculosis; test: Antitubercular activity against Mycobacterium tuberculosis H37Rv infected in BALB/c mouse chronic model assessed as reduction in tubercular granulomas at 2.5 mg/kg, ip measured after 4 weeks by H and E staining based analysis; type: functional, organism-based
[22] = system: Mycobacterium tuberculosis; test: Antitubercular activity against Mycobacterium tuberculosis infected in mouse RAW264.7 cells assessed as reduction in colony forming units at 5 to 9 microg/ml incubated for 48 hrs in presence of rifampin; type: functional, organism-based; settings: dose 5-9 µg/ml
[23] = system: Mycobacterium tuberculosis; test: Downregulation of hspX mRNA expression in Mycobacterium tuberculosis assessed as fold change by qRT-PCR analysis; type: functional
[24] = system: Mycobacterium tuberculosis; test: Downregulation of esxH mRNA expression in Mycobacterium tuberculosis assessed as fold change by qRT-PCR analysis; type: functional
[25] = system: Mycobacterium tuberculosis; test: Antitubercular activity against Mycobacterium tuberculosis H37Rv assessed as inhibition of bacterial growth incubated for 5 days in presence of isoniazid by Alamar Blue based assay; type: functional, organism-based; settings: time 5.0 day
[26] = system: Mycobacterium tuberculosis; test: Antitubercular activity against Mycobacterium tuberculosis infected in mouse RAW264.7 cells assessed as reduction in colony forming units at 5 to 9 microg/ml incubated for 48 hrs in presence of isoniazid; type: functional, organism-based; settings: dose 5-9 µg/ml
[27] = target: T2, Long-chain-fatty-acid--AMP ligase FadD32; test: Partial noncompetitive inhibition of Mycobacterium tuberculosis H37Rv recombinant FadD32 assessed as inhibition constant in presence of ATP by Lineweaver-burk plot analysis
[28] = system: Mycobacterium tuberculosis; test: Antitubercular activity against Mycobacterium tuberculosis infected in human THP-1 cells assessed as reduction in colony forming units at 5 to 9 microg/ml incubated for 48 hrs; type: functional, organism-based; settings: dose 5-9 µg/ml
[29] = system: Mycobacterium tuberculosis; test: Downregulation of murE mRNA expression in Mycobacterium tuberculosis assessed as fold change by qRT-PCR analysis; type: functional
THP-1 = test: Cytotoxicity against PMA-differentiated human THP-1 cells assessed as reduction in cell viability at 25 microg/ml incubated for 24 hrs by MTT assay; type: toxicity, cell-based; settings: thp-1, 24 h, dose 25 µg/ml
[30] = system: Mycobacterium tuberculosis; test: Antitubercular activity against Mycobacterium tuberculosis infected in human THP-1 cells assessed as reduction in colony forming units at 5 to 9 microg/ml incubated for 48 hrs in presence of ethambutol; type: functional, organism-based; settings: dose 5-9 µg/ml
[31] = system: Mycobacterium tuberculosis; test: Downregulation of IspD mRNA expression in Mycobacterium tuberculosis assessed as fold change by qRT-PCR analysis; type: functional
[32] = Toxicity in BALB/c mouse assessed as change in creatine level in serum at 2.5 mg/kg, ip measured for 14 days; type: organism-based; settings: in vivo, 336 h, time 14 day
[33] = system: Mycolicibacterium smegmatis; test: Antimycobacterial activity against Mycobacterium smegmatis assessed as inhibition of bacterial growth incubated for 5 days by Alamar Blue based assay; type: functional, organism-based; settings: 120 h
[34] = Toxicity in BALB/c mouse assessed as body weight loss at 2.5 mg/kg, ip measured for 14 days; type: organism-based; settings: in vivo, 336 h, time 14 day
[35] = Toxicity in BALB/c mouse assessed as change in SGPT level in serum at 2.5 mg/kg, ip measured for 14 days; type: organism-based; settings: in vivo, 336 h, time 14 day
[36] = system: Mycobacterium tuberculosis; test: Antitubercular activity against Mycobacterium tuberculosis H37Rv assessed as inhibition of bacterial growth incubated for 5 days in presence of rifampicin by Alamar Blue based assay; type: functional, organism-based; settings: time 5.0 day
[37] = Toxicity in BALB/c mouse assessed as change in SGOT level in serum at 2.5 mg/kg, ip measured for 14 days; type: organism-based; settings: in vivo, 336 h, time 14 day
[38] = system: Mycobacterium tuberculosis; test: Antitubercular activity against Mycobacterium tuberculosis infected in human THP-1 cells assessed as reduction in colony forming units at 5 to 9 microg/ml incubated for 48 hrs in presence of rifampin; type: functional, organism-based; settings: dose 5-9 µg/ml

Cc1ccc(O)c(-c2cc(C(F)(F)C(F)F)no2)c1
12.8 µg/mL: IC50 [1]

Oc1c(Br)cc(Br)cc1-c1cc(C(F)(F)F)no1
48.1 µM: Ki [4]
55.3 µM: Ki [27]
Non-toxic: Activity (RAW264.7) | Activity [2] | Activity [6] | Activity [15] | Activity (THP-1) | Activity [32] | Activity [34] | Activity [35] | Activity [37]
4.8 µg/mL: IC50 [1]
active: Activity [9] | inhibition [13] | Activity [14] | Activity [16] | Activity [17] | Activity [21] | Activity [22] | Activity [25] | Activity [26] | Activity [28] | Activity [30] | Activity [36] | Activity [38]
inactive: Activity (Escherichia coli)
2: fold change (FC) [5] | fold change (FC) [7] | fold change (FC) [8] | fold change (FC) [11] | fold change (FC) [12] | fold change (FC) [18] | fold change (FC) [19] | fold change (FC) [20] | fold change (FC) [23] | fold change (FC) [24] | fold change (FC) [29] | fold change (FC) [31]
95%: inhibition [3]
50%: inhibition [10]
20.8 µg/mL: IC50 [33]

Reference: ChEMBL document CHEMBL6087449, “Identification of an Isoxazole Derivative as an Antitubercular Compound for Targeting the FadD Enzymes of Mycobacterium tuberculosis” (J Med Chem, 2025)
